# Test results reported in patent publication US12084610B2, “Compositions and methods for reducing deleterious atmospheric gas emissions from flooded ecosystems” (Arkea Bio Corp., priority 2022, dated 2024).
# How the values were obtained:
# [1] = 3-NOP volatility (mass loss open to air); format: physicochemical; details: 500 mg in 5 dram vial open to air, ~18-24 C, 15-30% RH, 6 days
# Description: 3-NOP Volatility: 500 mg of 3-NOP in a 5 dram vial was left open to air at ˜18-24 C at 15-30% RH over the course of 6 days. Average mass loss is ˜0.25% per day.
# [2] = 3-NOP pH and temperature stability (HPLC); format: physicochemical; details: 1-month time period, temperature 4-30 C, pH 4-10
# Excerpt: 3-NOP pH and Temperature Stability: Confirmed via HPLC over a 1-month time period at temperature between 4-30 C and pH 4-10.
compound,measurement,setting,value
"O=[N+]([O-])OCCCO [Formula 3-NOP, 3-nitrooxypropanol]",Average mass loss (volatility),[1],~0.25 % per day
same,3-NOP pH and Temperature Stability,[2],Confirmed
